# Results taken from patent publication US12678433B2, “Compounds for treatment of hemolysis-and inflammasome-associated diseases” (New York Blood Center, Inc., priority 2020, dated 2026).
# B1: hemopexin: a heme scavenging protein (protein, UniProt P02790 24-462, looked up)
# Hemopexin: TPLPPTSAHGNVAEGETKPDPDVTERCSDGWSFDATTLDDNGTMLFFKGEFVWKSHKWDRELISERWKNFPSPVDAAFRQGHNSVFLIKGDKVWVYPPEKKEKGYPKLLQDEFPGIPSPLDAAVECHRGECQAEGVLFFQGDREWFWDLATGTMKERSWPAVGNCSSALRWLGRYYCFQGNQFLRFDPVRGEVPPRYPRDVRDYFMPCPGRGHGHRNGTGHGNSTHHGPEYMRCSPHLVLSALTSDNHGATYAFSGTHYWRLDTSRDGWHSWPIAHQWPQGPSAVDAAFSWEEKLYLVQGTQVYVFLTKGGYTLVSGYPKRLEKEVGTPHGIILDSVDAAFICPGSSRLHIMAGRRLWWLDLKSGAQATWTELPWPHEKVDGALCMEKSLGPNSCSANGPGLYLIHGPNLYCYSDVEKLNAAKALPQPQNVTSLLGCTH
# Legend:
# [1] = system: purified naïve B cells from healthy donors; conditions: for effect on plasma cell differentiation without or with heme: 2.5 μM compound, without or with 5 μM heme; for inhibition of B cell proliferation / inhibition of plasma cell differentiation: at the highest concentrations
# Protocol: Hemin and RBC lysate preparation. Hemin, dissolved in dimethyl sulfoxide (DMSO), stock concentration 10 mM, was diluted to 100 μM with serum-free RPMI 1640 culture medium just prior to addition to B cell cultures. For short-term experiments lasting less than 24 hr, a final concentration of 10 μM hemin was used whereas for longer-term culture up to 7 days, 2.5-5 μM final heme concentration was used. RBC lysates were freshly prepared (containing ~80 g/L hemoglobin) for same day use. Briefly, 4 ml whole blood from healthy donors was passed through Acrodisc WBC syringe filter (Pall Corporation) to remove white blood cells followed by two washes with Dulbecco's Phosphate Buffered Saline (D-PBS) (200×g, 10 min at room temperature with no brake) for removal of platelets. The RBC pellet was lysed with 3 times volume of distilled water for 10 min at 37° C. Cellular debris was pelleted by centrifugation at 4000×g for 10 min at 4° C. The RBC lysate was transferred to a new tube and 1/9 volume of 10×D-PBS added.
# Cell isolation and culture. Peripheral blood mononuclear cells (PBMCs) were prepared by Ficoll (GE Healthcare) density gradient centrifugation from healthy donor leukopak products as well as from sickle peripheral blood apheresis waste bags. Human naïve and memory B cells were isolated from PBMCs using a human memory B Cell Isolation Kit (Miltenyi Biotec) by collecting CD27− B cells (naïve B cells) and CD27+ B cell (memory B cells) separately. […] RPMI 1640 culture medium was used for all cell culture experiments (supplemented with 10% FBS, 100-unit penicillin-streptomycin, […], 1 mM sodium pyruvate, all from Thermo Fisher Scientific). Purified B cells were stained with CFSE (Cat #: C34554, Thermo Fisher Scientific) and cultured in U-bottom 96 well plates (2.5×10^5/well/200 μl culture medium) in the presence of goat anti-human IgA+IgG+IgM (H+L) F(ab′)2 fragment (2.5 μg/ml, Jackson ImmunoResearch), CD154 (10 ng/ml, R&D Systems) and CpG (ODN 7909, 1 nM, Cat #: tlrl-2006-1) without IL-2 for analysis of only CD38+ plasmablast differentiation or with IL-2 (5 ng/ml, Cat #:1081-IL-020, R&D Systems) in experiments to detect CD27^hiBlimp-1+ plasma cells. In addition, heme and various inhibitors were added to the cultures at the start point and incubated for 7 days.
# (§1) Cultured cells: stimulated B cells were transferred into U bottom 96 well plate and washed with 200 μl MACS buffer (D-PBS containing 0.5% BSA and 2 mM EDTA) at 300×g for 5 min at 4° C. After one wash, cells were stained for surface expression of CD19, CD38, CD27 using 25 μl staining buffer (anti-CD19, CD38, CD27 antibodies, diluted 200 fold with MACS buffer) for 30 min at 4° C. After one wash with 200 μl MACS buffer, cells were resuspended in 100 μl D-PBS and 50 μl Fixable Viability Dye eFluor™ 780 (1000 fold diluted with D-PBS, Thermo Fisher Scientific) was added for dead cell detection for 5 min at room temperature. Cells were washed one time with MACS buffer and 100 μl D-DPS was added just before flow cytometric analysis (LSRFortessa flow cytometer, BD Bioscience). For intracellular staining of IgG, Blimp-1 and HO-1, samples were first washed with 200 μl MACS buffer before addition of 150 μl Fixation/Permeabilization buffer (Thermo Fisher Scientific) for 45 min at 4° C. After fixation, samples were washed twice with 1× Permeabilization buffer (Thermo Fisher Scientific) and stained with 25 μl intracellular staining buffer (anti-human IgG, DOCK8, Blimp-1, HO-1 antibodies, diluted 200 fold with 1× Permeabilization buffer) for 45 min at 4° C., after which the cells were washed twice with Permeabilization buffer and 100p D-DPS was added prior to flow cytometric analysis.
# [2] = system: HO-1; experiment: HO-1 expression in stimulated B cells; assay type: cell-based, human; conditions: for HO-1 upregulation: 2.5 μM compound with 5 μM heme
# Source text: HO-1 is a key enzyme for heme degradation with multiple biologic activities attributed to its enzymatic byproducts. We analyzed HO-1 expression levels in human B cells before and after stimulation with our polyclonal B cell activation cocktail. […] We also found higher HO-1 levels in DOCK8^hi plasma cells (FIG. 8B).
# [3] = system: NLRP3 inflammasome pathway; experiment: NLRP3 inflammasome activation, IL-1β secretion by LPS-primed monocytes; assay type: cell-based, human; conditions: in the presence/absence of hemin
# Protocol: FIG. 13A-D depicts human monocytes isolated from peripheral blood were cultured with LPS for 3 hours to prime pro-IL-1β production followed by addition of various NLRP3 pathway agonists to trigger IL-1β secretion without or with therapeutic reagents including hemin, quinine or hemin plus quinine (all at 2.5 μM concentration for all experiments except the dose response studies in FIGS. 13B and C). Levels of IL-1β, IL-6 and TNF-α in the culture supernatants was analyzed 30 min (for ATP treatment) or 2 hours (for nigericin and imiquimod) after addition of NLRP3 agonists. FIG. 13A: The effect of hemin, quinine and hemin plus quinine on IL-1β secretion triggered by various NLRP3 agonists. FIG. 13B: The dose dependent effect of hemin, quinine and hemin plus quinine. FIG. 13C: The effect of QA, CQ, AQ, and DHA in the presence/absence of hemin. FIG. 13D: The effect of hemin, quinine, or hemin plus quinine on IL-6 and TNF-α.
# [4] = system: naïve B cells from Allo(−) and Allo(+) SCD patients; experiment: 7-day stimulated naïve B cell culture from SCD patients; assay type: cell-based, human; conditions: for effect on heme-mediated inhibition of plasmablast differentiation: SnPPIX 2.5 μM, heme 2.5 μM
# Protocol: Human samples. All studies were approved by the institutional Review Boards of the New York Blood Center (NYBC) and Montefiore Health Center. […] The blood samples from SCD patients were processed within 18 hours after collection. For circulating DOCK8 expression studies in healthy controls, peripheral blood samples from de-identified, race-matched healthy donors were used. Leukocyte enriched products from de-identified healthy donors were used for purification of B cells for in vitro culture studies.
# Cell isolation and culture. Peripheral blood mononuclear cells (PBMCs) were prepared by Ficoll (GE Healthcare) density gradient centrifugation from healthy donor leukopak products as well as from sickle peripheral blood apheresis waste bags. Human naïve and memory B cells were isolated from PBMCs using a human memory B Cell Isolation Kit (Miltenyi Biotec) by collecting CD27− B cells (naïve B cells) and CD27+ B cell (memory B cells) separately. […] In addition, heme and various inhibitors were added to the cultures at the start point and incubated for 7 days.
# as §1
# [5] = system: DOCK8; experiment: DOCK8 expression and DOCK8hi/DOCK8lo subsets in stimulated B cells; assay type: cell-based, human; conditions: quinine in the presence of heme
# Source text: We next tested the effect of cell-free heme on DOCK8 signaling during B cell differentiation. […] Heme treatment led to inhibition of CD27^hiBlimp-1^+ plasma cell differentiation (FIG. 2D, p=0.0195).
# [6] = system: SCD mice; experiment: RBC alloimmunization in SCD mice after huGPA RBC transfusion (anti-GPA antibody in plasma); assay type: in vivo, mouse; conditions: QA 12 mg/kg intraperitoneally twice per day
# Protocol: FIG. 10A-C. Effects of heme and quinine on mouse B cell differentiation in vitro: Splenic B cells were purified from C57BL/6J mice (n=3), stained with CFSE and cultured (5×10^4/well) for 7 days in the presence of anti-mouse IgM, IgG F(ab)′2 (10 μg/ml), anti-mouse CD40 antibody (1 μg/ml) and CpG (ODN1826) (1 μg/ml) without or with different doses of quinine and in the absence or presence of 2.5 μM or 5 μM concentration of hemin. Fold difference in proliferated B cells (FIG. 10A) and CD138+ plasma B cells (FIG. 10B) are shown. FIG. 10C: Representative experiment in SCD mice following transfusion of RBCs expressing human GPA (huGPA RBCs) collected from mice transgenic for human GPA in the absence or presence of quinine (QA). Briefly, mice were transfused twice with […] of huGPA RBCs, each transfusion given one week apart. Mice were treated intraperitoneally twice per day with QA (12 mg/kg, reported to maintain serum quinine levels at 0.5~1 μM) or the same volume PBS. Levels of anti-GPA antibody in plasma were measured 7 days after the last transfusion by flow cytometry.
# [7] = QA 12 mg/kg intraperitoneally twice per day; cited from earlier work
molecule,measurement,setting,value
"CCN(CC)Cc1cc(Nc2ccnc3cc(Cl)ccc23)ccc1O [AQ, amodiaquine]",effect on plasma cell differentiation without or with heme,[1],inhibited plasma cell differentiation in the absence or presence of heme
same,HO-1 upregulation,[2],not
same,effect of other hemin binding small molecules on the inflammasome activation pathway,[3],no inhibitory effect
"NCC(=O)O.[C-]#[O+].[C-]#[O+].[C-]#[O+].[Cl][Ru] [CORM-3, carbon monoxide releasing molecule-3]",inhibition of B cell proliferation,[1],38.7%±5.0%
same,inhibition of plasma cell differentiation,[1],91.2%±2.9%
"CCN(CC)CCCC(C)Nc1ccnc2cc(Cl)ccc12 (stereo not shown) [CQ, chloroquine]",effect on plasma cell differentiation without or with heme,[1],inhibited plasma cell differentiation in the absence or presence of heme
same,HO-1 upregulation,[2],not
same,effect of other hemin binding small molecules on the inflammasome activation pathway,[3],no inhibitory effect
"C[C@H]1[C@@H](O)O[C@@H]2O[C@@]3(C)CC[C@H]4[C@H](C)CC[C@@H]1[C@@]24OO3 [DHA, dihydroartemisinin]",effect of other hemin binding small molecules on the inflammasome activation pathway,[3],no inhibitory effect
"C=Cc1c2[n-]c(c1C)/C=c1\[n-]/c(c(C)c1C=C)=C\c1[n-]c(c(CCC(=O)O)c1C)C=c1[n-]/c(c(C)c1CCC(=O)O)=C\2.[Sn+4] [SnPPIX, tin protoporphyrin IX]",effect on heme-mediated inhibition of plasmablast cell differentiation,[1]; SnPPIX 2.5 μM with heme 2.5 μM,reversed
same,effect on differentiation,[1]; SnPPIX alone 2.5 μM,no effect
same,frequency of CD38+ plasmablasts,"[1]; SnPPIX alone 2.5 μM, vs 6.3%±2.7%",8.1%±3.5%
same,effect on B cell proliferation,"[1]; heme 2.5 μM, SnPPIX 2.5 μM, alone or together",little to no effect
same,effect on heme-mediated inhibition of plasmablast differentiation,[4]; Allo(+) SCD patients,less effect
same,effect on heme-mediated inhibition of plasmablast differentiation,[4]; Allo(−) SCD patients,reversed heme-mediated inhibition
same,"B cell proliferative responses, Allo(+) versus Allo(−)",[4]; in the presence of SnPPIX 2.5 μM,comparable
Cl.Cl.NCCNc1ncc(C(N)=O)c(Nc2cccc(C(F)(F)F)c2)n1 [Syk Inhibitor II],HO-1 in stimulated B cells,[2]; SYK inhibitor relative to no SYK inhibitor,induction of HO-1
C=CC1=C(C)/C(=C/C2=NC(=C\c3[nH]c(/C=C4\NC(=O)C(C)=C4C=C)c(C)c3CCC(=O)O)/C(CCC(=O)O)=C2C)NC1=O [biliverdin],inhibition of B cell proliferation,[1],13.3%±3.5%
same,inhibition of plasma cell differentiation,[1],68.4%±18.6%
"C=C[C@H]1C[N@@]2CC[C@H]1C[C@H]2[C@H](O)c1ccnc2ccc(OC)cc12 [quinine, (R)-(6-Methoxyquinolin-4-yl)[(1S,2S,4S,5R)-5-vinylquinuclidin-2-yl]methanol]",effect on plasma cell differentiation without or with heme,[1],required the presence of heme
same,cytotoxic effects (viability studies),[1]; except at the highest doses of heme plus quinine,minimal cytotoxic effects
same,effect on resistance to heme suppression,"[4]; Allo(+) patients, quinine plus heme",reversed resistance to heme suppression
same,effect on heme-mediated suppression of plasma cells,"[4]; Allo(−) SCD patients, quinine plus heme",further increased heme-mediated suppression
same,effect on plasma cell differentiation in the absence of heme,[4]; both groups of SCD patients,weak but significant inhibitory effect
same,effect on DOCK8 expression,[5],no significant effect
same,RBC alloimmunization levels in vivo,[6],did not lower
same,serum quinine levels,[7],0.5~1 μM
B1,effect of pre-incubation with hemopexin on inhibition by RBC lysate or free heme,"[1]; hemopexin 2.5 μM, RBC lysate 1 g/L hemoglobin or heme 2.5 μM",reversed the inhibitory effect
